Data published in article PMC5358321 (Synapse (New York, N.Y.), 2016).
Values joined by “and” are separate entries in the source; they are usually repeats but may differ in a detail not shown here. Identical values can stand only once. Marks after values point to notes of the source that are not given here.

Legend:
[1] = In vivo rat PET/CT, brain uptake; settings: for maximum (peak) activity levels in the various brain regions: 90 min scan; for time to approach plateau in cerebellum (CB): postinjection
[2] = In vivo rat whole body PET/CT, interscapular brown adipose tissue; settings: for IBAT +ATX uptake / Ratio uptake at 4.5 min/uptake at 85 min, IBAT +ATX: atomoxetine preinjection
Aβ plaques [3] = molecular target: T1, Aβ plaques (Homo sapiens, UniProt P05067); assay: Postmortem human brain; assay type: binding; settings: for GM/WM, local hot spots in grey matter: normal control NC2, hippocampus sections 7 μm
Aβ plaques [4] = molecular target: T1, Aβ plaques; assay: In vitro binding affinity: inhibition of [^3H]PIB binding in human AD brain
Aβ plaques [5] = settings: using ^125I-TZDM; ref Kung et al., 2003; cited from earlier work
Aβ plaques [6] = assay: Ki using ^125I-TZDM; assay type: binding
Aβ plaques [7] = molecular target: T1, Aβ plaques; settings: AD brain homogenates using ^18F-florbetapir; ref Choi et al., 2009; cited from earlier work
[8] = 4.5 min, atomoxetine preinjection
[9] = 4.5 min post iv injection, baseline
[10] = 85 min, atomoxetine preinjection
[11] = normal control NC1, hippocampus sections 7 μm
[12] = subject AD1, hippocampus sections 7 μm
[13] = subject AD2, hippocampus sections 7 μm

T1 sequence (P05067 672-711 limits assumed): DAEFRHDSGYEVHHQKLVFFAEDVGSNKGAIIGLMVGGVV

Q: Which “Cerebellum +ATX uptake” value [1, 8] does the source give for `CN(C)c1ccc(N=Nc2ccc(N[11CH3])cc2)cc1` [[^11C]TAZA, 4-[^11C]methylamino-4′-N,N-dimethylaminoazo-benzene] here?
A: 0.695 %injected dose/cc

Q: What about the “Frontal Cortex +ATX uptake” value [1, 8] of the same compound?
A: 0.627 %injected dose/cc

Q: And the Brain-stem uptake [1, 9]?
A: 0.013 %injected dose/cc

Q: What about the Cerebellum uptake [1, 9] of the same compound?
A: 0.010 %injected dose/cc

Q: What about the “Frontal Cortex uptake” value [1, 9] of the same compound?
A: 0.007 %injected dose/cc

Q: And the Brain-stem uptake ([1]; 85 min (end of scan), baseline)?
A: 0.285 %injected dose/cc

Q: What about the “Cerebellum +ATX uptake” value [1, 10] of the same compound?
A: 0.154 %injected dose/cc

Q: And the “Frontal Cortex +ATX uptake” value [1, 10]?
A: 0.160 %injected dose/cc

Q: And the Cerebellum uptake ([1]; 85 min, baseline)?
A: 0.192 %injected dose/cc

Q: What about the “Frontal Cortex uptake” value ([1]; 85 min, baseline) of the same compound?
A: 0.16 %injected dose/cc

Q: And the “Ratio of brainstem to frontal cortex” value ([1]; 85 min postinjection, baseline)?
A: 1.78

Q: What about the “Ratio of cerebellum to frontal cortex” value ([1]; 85 min postinjection, baseline) of the same compound?
A: 1.20

Q: What about the “Ratio uptake at 4.5 min/uptake at 85 min, Brain-stem +ATX” value ([1]; atomoxetine preinjection) of the same compound?
A: 4.2

Q: And the “Ratio uptake at 4.5 min/uptake at 85 min, Cerebellum +ATX” value ([1]; atomoxetine preinjection)?
A: 4.51

Q: What about the “Ratio uptake at 4.5 min/uptake at 85 min, Frontal Cortex +ATX” value ([1]; atomoxetine preinjection) of the same compound?
A: 3.92

Q: What about the “ratio between initial time (4.5 min) and later time (85 min), brain regions” value ([1]; atomoxetine preinjection, brain regions overall) of the same compound?
A: ~5

Q: What about the “Ratio uptake at 4.5 min/uptake at 85 min, Brain-stem” value ([1]; baseline) of the same compound?
A: 0.05

Q: What about the “Ratio uptake at 4.5 min/uptake at 85 min, Cerebellum” value ([1]; baseline) of the same compound?
A: 0.05

Q: And the “time at which brain uptake plateaued” value ([1]; baseline)?
A: approximately 60 min

Q: And the “maximum (peak) activity levels in the various brain regions” value ([1]; baseline)?
A: approximately 0.3 % injected dose/cc

Q: And the “time to approach plateau in cerebellum (CB)” value ([1]; baseline)?
A: approximately 50 min

Q: And the “reduction of brainstem to frontal cortex ratio by atomoxetine” value ([1]; end of scan)?
A: approximately 10%

Q: And the “IBAT +ATX uptake” value ([2]; 4.5 min (initial uptake))?
A: 0.15 %Injected dose/cc and 0.148 %Injected dose/cc

Q: And the “IBAT Baseline uptake” value [2, 9]?
A: 0.015 %Injected dose/cc

Q: What about the “IBAT Baseline uptake” value ([2]; 85 min (end of scan), baseline) of the same compound?
A: 0.43 %Injected dose/cc and 0.429 %Injected dose/cc

Q: And the “IBAT +ATX uptake” value ([2]; 85 min)?
A: 0.02 %Injected dose/cc and 0.016 %Injected dose/cc

Q: And the “Ratio uptake at 4.5 min/uptake at 85 min, IBAT +ATX” value [2]?
A: 9 and 9.25

Q: And the “Ratio uptake at 4.5 min/uptake at 85 min, IBAT Baseline” value ([2]; baseline)?
A: 0.04

Q: And the “time at which IBAT activity leveled off / plateau” value ([2]; baseline)?
A: ~90 min

Q: And the “displacement of [^11C]TAZA binding by PIB” value (Aβ plaques [3]; 10 μM PIB, gray matter of AD1 and AD2 hippocampus)?
A: > 90% and > 94%

Q: And the “gray matter to white matter ratios in AD brains” value (Aβ plaques [3]; AD brains, summary statement)?
A: > 20

Q: What about the “GM/WM (gray matter to white matter ratio)” value (Aβ plaques [3]; [11]) of the same compound?
A: ~1

Q: And the “GM/WM, local hot spots in grey matter” value (Aβ plaques [3])?
A: in grey matter (≥5)

Q: What about the “GM/WM (gray matter to white matter ratio)” value (Aβ plaques [3]; [12]) of the same compound?
A: 19.6

Q: And the “GM/WM (gray matter to white matter ratio)” value (Aβ plaques [3]; [13])?
A: 30.5

Q: With `CNc1ccc(N=Nc2ccc(N(C)C)cc2)cc1` [TAZA, 4-methylamino-4′-N,N-dimethylaminoazobenzene] as the compound, how does the “Binding affinity Relative to PIB” value (Aβ plaques [4]) read?
A: 7.81 ^g

Q: For `[11CH3]Nc1ccc(-c2nc3ccc(O)cc3s2)cc1` [[^11C]PIB], which Cerebellum uptake [1, 9] is on record?
A: 0.823 %injected dose/cc

Q: What about the “Frontal Cortex uptake” value [1, 9] of the same compound?
A: 0.714 %injected dose/cc

Q: What about the Brain-stem uptake ([1]; 85 min (end of scan), baseline) of the same compound?
A: 0.056 %injected dose/cc

Q: What about the Cerebellum uptake ([1]; 85 min, baseline) of the same compound?
A: 0.124 %injected dose/cc

Q: What about the “Frontal Cortex uptake” value ([1]; 85 min, baseline) of the same compound?
A: 0.045 %injected dose/cc

Q: What about the “IBAT Baseline uptake” value ([2]; 85 min (end of scan), baseline) of the same compound?
A: 0.056 %Injected dose/cc

Q: With `CN(C)c1ccc(C=Cc2ccc(N[11CH3])cc2)cc1` [[^11C]Dalene, ^11C-methylamino-4′-dimethylaminostyrylbenzene] as the compound, how does the “Cerebellum +ATX uptake” value [1, 8] read?
A: 0.788 %injected dose/cc

Q: And the “Frontal Cortex +ATX uptake” value [1, 8]?
A: 0.828 %injected dose/cc

Q: What about the Brain-stem uptake [1, 9] of the same compound?
A: 0.011 %injected dose/cc

Q: What about the Cerebellum uptake [1, 9] of the same compound?
A: 0.015 %injected dose/cc

Q: What about the “Frontal Cortex uptake” value [1, 9] of the same compound?
A: 0.015 %injected dose/cc

Q: And the Brain-stem uptake ([1]; 85 min (end of scan), baseline)?
A: 0.124 %injected dose/cc

Q: What about the “Cerebellum +ATX uptake” value [1, 10] of the same compound?
A: 0.304 %injected dose/cc

Q: And the “Frontal Cortex +ATX uptake” value [1, 10]?
A: 0.30 %injected dose/cc and 0.304 %injected dose/cc

Q: What about the “Ratio of brainstem to frontal cortex” value [1, 10] of the same compound?
A: 1.75

Q: What about the “Ratio of cerebellum to frontal cortex” value [1, 10] of the same compound?
A: 1.0

Q: And the Cerebellum uptake ([1]; 85 min, baseline)?
A: 0.072 %injected dose/cc

Q: And the “Frontal Cortex uptake” value ([1]; 85 min, baseline)?
A: 0.069 %injected dose/cc

Q: And the “Ratio of brainstem to frontal cortex” value ([1]; 85 min postinjection, baseline)?
A: 1.80

Q: What about the “Ratio of cerebellum to frontal cortex” value ([1]; 85 min postinjection, baseline) of the same compound?
A: 1.04

Q: What about the “Ratio uptake at 4.5 min/uptake at 85 min, Brain-stem +ATX” value ([1]; atomoxetine preinjection) of the same compound?
A: 2.12

Q: And the “Ratio uptake at 4.5 min/uptake at 85 min, Cerebellum +ATX” value ([1]; atomoxetine preinjection)?
A: 2.59

Q: What about the “Ratio uptake at 4.5 min/uptake at 85 min, Frontal Cortex +ATX” value ([1]; atomoxetine preinjection) of the same compound?
A: 2.72

Q: And the “Ratio uptake at 4.5 min/uptake at 85 min, Brain-stem” value ([1]; baseline)?
A: 0.09

Q: What about the “Ratio uptake at 4.5 min/uptake at 85 min, Cerebellum” value ([1]; baseline) of the same compound?
A: 0.21

Q: What about the “time at which brain uptake plateaued” value ([1]; baseline) of the same compound?
A: approximately 60 min

Q: What about the “maximum (peak) activity levels in the various brain regions” value ([1]; baseline) of the same compound?
A: approximately 0.1 % injected dose/cc

Q: What about the “time to approach plateau in cerebellum (CB)” value ([1]; baseline) of the same compound?
A: approximately 40 min

Q: What about the “IBAT +ATX uptake” value ([2]; 4.5 min (initial uptake)) of the same compound?
A: 0.05 %Injected dose/cc and 0.054 %Injected dose/cc

Q: What about the “IBAT Baseline uptake” value [2, 9] of the same compound?
A: 0.018 %Injected dose/cc

Q: And the “IBAT Baseline uptake” value ([2]; 85 min (end of scan), baseline)?
A: 0.12 %Injected dose/cc and 0.118 %Injected dose/cc

Q: And the “IBAT +ATX uptake” value ([2]; 85 min)?
A: 0.05 %Injected dose/cc

Q: And the “Ratio uptake at 4.5 min/uptake at 85 min, IBAT +ATX” value [2]?
A: 1.08

Q: And the “Ratio uptake at 4.5 min/uptake at 85 min, IBAT Baseline” value ([2]; baseline)?
A: 0.15

Q: What about the “fold lower GM/WM ratio than [^11C]TAZA” value (Aβ plaques [3]; AD subjects) of the same compound?
A: approximately 5 fold

Q: What about the “GM/WM (gray matter to white matter ratio)” value (Aβ plaques [3]; [11]) of the same compound?
A: ~1

Q: And the “GM/WM, local hot spots in grey matter” value (Aβ plaques [3])?
A: grey matter (~2)

Q: And the “GM/WM (gray matter to white matter ratio)” value (Aβ plaques [3]; [12])?
A: 3.68

Q: What about the “GM/WM (gray matter to white matter ratio)” value (Aβ plaques [3]; [13]) of the same compound?
A: 5.34

Q: Which results are given for `CNc1ccc(C=Cc2ccc(N(C)C)cc2)cc1` [Dalene, 4-methylamino-4′-N,N-dimethylaminostyrylbenzene]?
A: Ki (Aβ plaques [5]): 15 nM and 15.2 nM; Times weaker affinity compared to SB-13 (Aβ plaques [6]; ^125I-TZDM assay, Kung et al., 2003): approximately 5; Binding affinity relative to SB-13 (Aβ plaques [6]; compared to affinity measures of SB-13 in the same assay (^125I-TZDM; Kung et al., 2003)): (0.21) ^i

Q: Which Ki (Aβ plaques [7]) does the source give for `CNc1ccc(-c2cc3cc(O)ccc3o2)c(F)n1` [AZD4694] here?
A: 2.3 nM
